{"source": "patent US6476019B1", "about": "“Spirocyclic ligands for sigma receptors, and libraries and methods of use thereof” (Sepracor Inc., priority 1999, dated 2002)", "key": {"[1]": {"target": "T1, sigma-1 receptor (guinea pig brain) (Cavia porcellus, UniProt Q60492)", "T1 construct": "from tissue; host or cells: guinea pig brain", "T1 sequence (Q60492 whole entry)": "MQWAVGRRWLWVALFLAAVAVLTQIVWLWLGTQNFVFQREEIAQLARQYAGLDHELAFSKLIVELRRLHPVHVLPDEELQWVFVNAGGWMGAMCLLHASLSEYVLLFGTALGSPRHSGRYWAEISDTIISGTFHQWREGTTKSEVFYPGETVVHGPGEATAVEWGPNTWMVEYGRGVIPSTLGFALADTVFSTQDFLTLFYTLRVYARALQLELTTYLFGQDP", "experiment": "Antagonism of haloperidol binding to guinea pig sigma-1 receptors", "settings": "sigma-1, guinea pig brain; for % Inhibition: test concentration not given"}, "sigma-1 receptors": {"target": "sigma-1 receptors (Cavia porcellus, UniProt Q60492)", "sequence (Q60492 whole entry)": "as above", "experiment": "Behavioral receptor assays: sigma-1", "type": "binding", "settings": "guinea pig", "description": "(§1) Various compounds of the present invention (19, 31, and 32) were evaluated in a group of assays based on mammalian cellular receptors associated with behavior. The group consisted of assays base on human dopamine D1, D2L, D3, D4.2, D4.4, D4.7, and D5 receptors, and the transporter; human serotonin 5-HT1A, 5-HT1B, 5-HT1D, 5-HT2A, 5-HT2B, 5-HT2C, 5-HT3, 5-HT5A, 5-HT6, and 5-HT7 receptors, and the human serotonin transporter; guinea pig 5-HT4 and sigma-1 receptors; rat sigma-2 and muscarinic receptors; and human NK1-3 receptors. The following table presents a subset of the results of these assays."}, "sigma-2": {"target": "sigma-2 (Rattus norvegicus, UniProt Q5U3Y7)", "sequence (Q5U3Y7 whole entry)": "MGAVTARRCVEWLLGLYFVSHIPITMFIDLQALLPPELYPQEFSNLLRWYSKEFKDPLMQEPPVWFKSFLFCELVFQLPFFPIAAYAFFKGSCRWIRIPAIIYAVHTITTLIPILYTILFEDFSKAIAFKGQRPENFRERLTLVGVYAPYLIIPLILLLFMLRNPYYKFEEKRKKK", "experiment": "Behavioral receptor assays: sigma-2", "type": "binding", "settings": "read-out: Receptors (IC50) sigma-2", "description": "as §1"}, "Permeability": {"experiment": "Permeability", "type": "in vitro ADME", "settings": "not told; read-out: Permeability PupperX10^6 cm/s"}, "human sigma receptor": {"target": "human sigma receptor (Homo sapiens, UniProt Q99720)", "sequence (Q99720 whole entry)": "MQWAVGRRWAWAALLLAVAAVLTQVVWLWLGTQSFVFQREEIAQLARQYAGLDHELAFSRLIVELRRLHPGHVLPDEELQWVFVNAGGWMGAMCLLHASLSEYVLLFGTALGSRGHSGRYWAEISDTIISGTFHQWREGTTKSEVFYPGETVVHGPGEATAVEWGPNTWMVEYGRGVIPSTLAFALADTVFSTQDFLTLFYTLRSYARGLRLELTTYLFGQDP", "experiment": "Human sigma receptor assay", "type": "binding", "settings": "read-out: IC50 Against Human Sigma Receptor", "description": "(§2) The ability of test compounds to displace sigma ligands in vitro was determined by the methods of de Costa et al. (FEBS Lett. 251:53 (1989)) and De Haven-Hudkine et al. (Eur. J. Pharmacol. 227:372 (1992)) having guinea pig as a receptor source. Whereas, the methods of Gamapatju et al. (J. Pharm.&Exp. 289:251 (1999)) were utilized for human sigma receptors."}, "[2]": {"target": "T2, guinea pig sigma receptor (Cavia porcellus, UniProt Q60492)", "T2 construct": "having guinea pig as a receptor source; from tissue; host or cells: guinea pig", "T2 sequence (Q60492 whole entry)": "as the sequence (Q60492 whole entry) above", "experiment": "Guinea pig sigma receptor assay", "type": "binding", "settings": "read-out: IC50 Against Guinea Pig Sigma Receptor", "description": "as §2"}, "[3]": {"experiment": "Pharmacokinetics in a single rat", "type": "in vivo", "settings": "for concentration at 4 h: brain, 4 h post dose, read-out: Brain Tissue Distribution (4 h post dose, ng/g tissue); for concentration at 4 h / clearance / AUC(0-t): iv; for concentration at 4 h / AUC(0-t) / T1/2α / T1/2β: rat; for clearance / AUC(0-t): plasma; for clearance / Vb / Vc: rat (270 g); for AUC(0-t): read-out: AUC0-4h", "description": "Pharmacokinetic properties of the compounds were evaluated in a single rat after dosing 4 and 5 mg/kg, respectively. The dose was well tolerated by the animal. The data below is based on a 270 g rat. Numerous time points were taken during a 4 hour period where a 0.1 mL volume of plasma was transferred to a 1.4 mL polypropylene vial and 0.4 mL of chilled methanol (0° C.) was added. The resulting percipitate was centrifuged at 7000 rpm at 4° C. for 5 min. The resulting supernatant was analysed by HPLC using a sample volume of 0.05 mL alongside standard solutions prepared by “spiking” known amounts of the compounds into the control plasma. Standard solution of the compounds were prepared in methanol."}, "GSH Level": {"test_system": "GSH Level", "experiment": "Safety Assessment: GSH Level"}, "RedOx State": {"test_system": "RedOx State", "experiment": "Safety Assessment: RedOx State"}, "DNA Synthesis": {"test_system": "DNA Synthesis", "experiment": "Safety Assessment: DNA Synthesis"}, "Cell Viability": {"test_system": "Cell Viability", "experiment": "Safety Assessment: Cell Viability"}, "Protein Synthesis": {"test_system": "Protein Synthesis", "experiment": "Safety Assessment: Protein Synthesis"}, "Membrane Integrity": {"test_system": "Membrane Integrity", "experiment": "Safety Assessment: Membrane Integrity"}, "Caspase-3": {"test_system": "Caspase-3", "experiment": "Safety Assessment: Caspase-3 Induction"}, "CYP1A2": {"target": "T3, CYP1A2 (Homo sapiens, UniProt P05177)", "T3 sequence (P05177 1-516)": "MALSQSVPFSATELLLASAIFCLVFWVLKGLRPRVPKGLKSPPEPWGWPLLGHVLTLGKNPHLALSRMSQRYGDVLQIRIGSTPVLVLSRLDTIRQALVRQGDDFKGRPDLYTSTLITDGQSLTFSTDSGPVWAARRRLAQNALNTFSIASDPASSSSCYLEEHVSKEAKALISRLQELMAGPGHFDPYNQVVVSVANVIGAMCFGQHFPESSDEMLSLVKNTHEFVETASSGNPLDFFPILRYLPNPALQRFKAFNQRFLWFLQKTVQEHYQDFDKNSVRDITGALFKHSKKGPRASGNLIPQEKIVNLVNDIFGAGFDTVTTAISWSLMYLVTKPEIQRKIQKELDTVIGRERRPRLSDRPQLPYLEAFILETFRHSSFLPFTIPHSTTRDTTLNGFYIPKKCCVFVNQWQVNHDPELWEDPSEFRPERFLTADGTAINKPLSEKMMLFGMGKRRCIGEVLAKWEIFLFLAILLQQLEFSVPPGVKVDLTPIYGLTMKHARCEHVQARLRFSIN", "experiment": "In Vitro Metabolism (isozymes of P450) CYP1A2"}, "CYP2C9": {"target": "CYP2C9 (Homo sapiens, UniProt P11712)", "sequence (P11712 whole entry)": "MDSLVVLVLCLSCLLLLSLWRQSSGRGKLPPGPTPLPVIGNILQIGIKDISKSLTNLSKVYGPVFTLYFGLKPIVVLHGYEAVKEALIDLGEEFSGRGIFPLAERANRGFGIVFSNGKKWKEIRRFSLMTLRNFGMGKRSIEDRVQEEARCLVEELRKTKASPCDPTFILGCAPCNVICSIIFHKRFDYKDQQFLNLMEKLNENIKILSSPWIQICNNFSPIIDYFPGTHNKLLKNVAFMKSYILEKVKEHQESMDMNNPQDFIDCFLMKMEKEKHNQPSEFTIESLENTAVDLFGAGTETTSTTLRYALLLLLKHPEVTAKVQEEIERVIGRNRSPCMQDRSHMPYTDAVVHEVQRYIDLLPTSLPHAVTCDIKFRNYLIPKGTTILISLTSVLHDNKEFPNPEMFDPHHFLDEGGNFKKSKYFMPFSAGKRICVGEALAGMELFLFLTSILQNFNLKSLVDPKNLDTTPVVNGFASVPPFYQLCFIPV", "experiment": "In Vitro Metabolism (isozymes of P450) CYP2C9"}, "CYP2D6": {"target": "CYP2D6 (Homo sapiens, UniProt P10635)", "sequence (P10635 whole entry)": "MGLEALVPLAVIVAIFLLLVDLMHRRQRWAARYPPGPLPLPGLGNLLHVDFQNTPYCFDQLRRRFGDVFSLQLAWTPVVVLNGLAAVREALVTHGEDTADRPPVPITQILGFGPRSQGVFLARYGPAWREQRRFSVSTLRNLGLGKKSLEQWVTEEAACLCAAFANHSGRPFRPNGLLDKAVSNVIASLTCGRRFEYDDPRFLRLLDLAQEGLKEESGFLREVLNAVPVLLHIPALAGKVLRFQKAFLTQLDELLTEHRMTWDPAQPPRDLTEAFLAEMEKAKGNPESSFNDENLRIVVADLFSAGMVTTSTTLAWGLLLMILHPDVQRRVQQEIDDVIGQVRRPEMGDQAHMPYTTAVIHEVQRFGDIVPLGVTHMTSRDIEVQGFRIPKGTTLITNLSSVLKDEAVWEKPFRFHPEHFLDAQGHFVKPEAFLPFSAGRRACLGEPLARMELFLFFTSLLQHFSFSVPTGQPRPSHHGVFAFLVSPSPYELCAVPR", "experiment": "In Vitro Metabolism (isozymes of P450) CYP2D6"}, "CYP3A4": {"target": "CYP3A4 (Homo sapiens, UniProt P08684)", "sequence (P08684 whole entry)": "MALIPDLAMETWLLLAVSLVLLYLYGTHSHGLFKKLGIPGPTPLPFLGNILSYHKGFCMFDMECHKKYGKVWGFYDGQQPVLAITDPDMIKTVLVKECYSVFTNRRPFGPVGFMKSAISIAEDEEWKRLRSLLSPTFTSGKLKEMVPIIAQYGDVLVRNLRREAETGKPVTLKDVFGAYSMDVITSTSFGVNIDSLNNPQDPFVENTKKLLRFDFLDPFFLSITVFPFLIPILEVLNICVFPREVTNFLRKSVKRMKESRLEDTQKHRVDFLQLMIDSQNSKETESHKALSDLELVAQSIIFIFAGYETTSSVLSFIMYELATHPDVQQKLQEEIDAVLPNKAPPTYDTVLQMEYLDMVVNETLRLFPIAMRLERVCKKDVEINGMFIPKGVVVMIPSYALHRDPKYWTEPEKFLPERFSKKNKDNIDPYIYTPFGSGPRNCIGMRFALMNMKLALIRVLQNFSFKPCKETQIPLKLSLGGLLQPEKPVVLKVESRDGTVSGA", "experiment": "In Vitro Metabolism (isozymes of P450) CYP3A4"}, "CYP2C19": {"target": "CYP2C19 (Homo sapiens, UniProt P33261)", "sequence (P33261 whole entry)": "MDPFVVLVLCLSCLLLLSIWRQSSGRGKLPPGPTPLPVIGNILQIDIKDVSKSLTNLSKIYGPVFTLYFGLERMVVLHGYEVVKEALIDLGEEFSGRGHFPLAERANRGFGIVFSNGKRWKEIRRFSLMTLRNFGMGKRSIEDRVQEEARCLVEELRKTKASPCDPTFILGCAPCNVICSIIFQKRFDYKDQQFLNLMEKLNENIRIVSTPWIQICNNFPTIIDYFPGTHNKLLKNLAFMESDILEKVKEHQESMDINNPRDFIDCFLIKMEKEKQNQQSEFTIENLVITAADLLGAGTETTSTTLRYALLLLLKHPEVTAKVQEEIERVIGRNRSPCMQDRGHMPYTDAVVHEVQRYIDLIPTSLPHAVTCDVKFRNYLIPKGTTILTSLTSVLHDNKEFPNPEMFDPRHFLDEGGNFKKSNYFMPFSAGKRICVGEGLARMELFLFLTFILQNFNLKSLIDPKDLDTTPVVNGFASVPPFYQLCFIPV", "experiment": "In Vitro Metabolism (isozymes of P450) CYP2C19"}}, "note": "Like-named read-outs stand apart in the source and are kept apart here.", "data": [{"smiles": "OC1CCC2(CCN(Cc3ccc(F)cc3)CC2)Nc2ccccc21", "note": "(racemic) [Compound 32, 1′-(4-fluorobenzyl)-3,4-dihydrospiro[5H-1-benzazepine-2(1H)-4′-piperidin]-5ol]", "values": [{"measurement": "IC50", "setting": "[1]", "value": "< 0.01", "unit": "µM"}, {"measurement": "% Inhibition", "setting": "[1]", "value": ">50", "unit": "%"}, {"measurement": "IC50", "setting": "sigma-1 receptors", "value": "< 0.01", "unit": "µM"}, {"measurement": "IC50", "setting": "sigma-2", "value": "< 1", "unit": "µM"}, {"measurement": "Papp", "setting": "Permeability", "value": 22.4, "unit": "×10⁻⁶ cm/s"}, {"measurement": "IC50", "setting": "human sigma receptor", "value": "< 0.1", "unit": "µM"}, {"measurement": "IC50", "setting": "[2]", "value": "< 0.01", "unit": "µM"}, {"measurement": "concentration at 4 h", "setting": "[3]; 5 mg/kg i.v.", "value": 134, "unit": "ng/g"}, {"measurement": "clearance", "setting": "[3]; 5 mg/kg i.v.", "value": 31.7, "unit": "mL/min"}, {"measurement": "AUC(0-t)", "setting": "[3]; 5 mg/kg i.v., 10% hydroxypropyl-p-cyclodextrin", "value": 700, "unit": "ng·h/mL"}, {"measurement": "Vb", "setting": "[3]; 5 mg/kg i.v.", "value": 42, "unit": "L"}, {"measurement": "Vc", "setting": "[3]; 5 mg/kg i.v.", "value": 1.1, "unit": "L"}, {"measurement": "T1/2α", "setting": "[3]; 5 mg/kg i.v.", "value": 12.6, "unit": "min"}, {"measurement": "T1/2β", "setting": "[3]; 5 mg/kg i.v.", "value": 120, "unit": "min"}, {"measurement": "Log D7.5", "setting": "Log D7.5", "value": 3.7}, {"measurement": "solubility", "setting": "Solubility", "value": 83, "unit": "µM"}, {"measurement": "fraction unbound", "setting": "Protein Binding", "value": "< 0.01"}, {"measurement": "Metabolic Stability (% parent remaining)", "setting": "Metabolic Stability", "value": 1, "unit": "% parent remaining"}, {"measurement": "GSH Level (% Control)", "setting": "GSH Level", "value": "<10", "unit": "% Control"}, {"measurement": "RedOx State", "setting": "RedOx State", "value": 17, "unit": "% inhibition"}, {"measurement": "DNA Synthesis", "setting": "DNA Synthesis", "value": "<10", "unit": "% inhibition"}, {"measurement": "Cell Viability", "setting": "Cell Viability", "value": "<10", "unit": "% inhibition"}, {"measurement": "Protein Synthesis", "setting": "Protein Synthesis", "value": "<10", "unit": "% inhibition"}, {"measurement": "Membrane Integrity", "setting": "Membrane Integrity", "value": "<10", "unit": "% inhibition"}, {"measurement": "Caspase-3 Induction % Induction", "setting": "Caspase-3", "value": "<10", "unit": "% Induction"}, {"measurement": "CYP1A2", "setting": "CYP1A2", "value": 20, "unit": "% inhibition"}, {"measurement": "CYP2C9", "setting": "CYP2C9", "value": 11, "unit": "% inhibition"}, {"measurement": "CYP2D6", "setting": "CYP2D6", "value": 102, "unit": "% inhibition"}, {"measurement": "CYP3A4", "setting": "CYP3A4", "value": 67, "unit": "% inhibition"}, {"measurement": "CYP2C19", "setting": "CYP2C19", "value": 42, "unit": "% inhibition"}]}, {"smiles": "O=C1CCC2(CCN(Cc3ccc(F)cc3)CC2)Nc2ccccc21", "note": "[Compound 31, 1′-(4-fluorobenzyl)-3,4-dihydrospiro[5H-1-benzazepine-2(1H)-4′-piperidin]-5-one]", "values": [{"measurement": "IC50", "setting": "[1]", "value": "< 0.01", "unit": "µM"}, {"measurement": "% Inhibition", "setting": "[1]", "value": ">50", "unit": "%"}, {"measurement": "IC50", "setting": "sigma-1 receptors", "value": "< 0.01", "unit": "µM"}, {"measurement": "IC50", "setting": "sigma-2", "value": "< 1", "unit": "µM"}, {"measurement": "Papp", "setting": "Permeability", "value": 22.9, "unit": "×10⁻⁶ cm/s"}, {"measurement": "IC50", "setting": "human sigma receptor", "value": "< 0.1", "unit": "µM"}, {"measurement": "IC50", "setting": "[2]", "value": "< 0.01", "unit": "µM"}, {"measurement": "concentration at 4 h", "setting": "[3]; 4 mg/kg i.v.", "value": 70, "unit": "ng/g"}, {"measurement": "clearance", "setting": "[3]; 4 mg/kg i.v.", "value": 10.2, "unit": "mL/min"}, {"measurement": "AUC(0-t)", "setting": "[3]; 4 mg/kg i.v., Peg400:Dextrose (2:3 v/v)", "value": 1480, "unit": "ng·h/mL"}, {"measurement": "Vb", "setting": "[3]; 4 mg/kg i.v.", "value": 0.65, "unit": "L"}, {"measurement": "Vc", "setting": "[3]; 4 mg/kg i.v.", "value": 0.23, "unit": "L"}, {"measurement": "T1/2α", "setting": "[3]; 4 mg/kg i.v.", "value": 7.2, "unit": "min"}, {"measurement": "T1/2β", "setting": "[3]; 4 mg/kg i.v.", "value": 48, "unit": "min"}, {"measurement": "Log D7.5", "setting": "Log D7.5", "value": 2.19}, {"measurement": "solubility", "setting": "Solubility", "value": 192, "unit": "µM"}, {"measurement": "fraction unbound", "setting": "Protein Binding", "value": 0.04}, {"measurement": "Metabolic Stability (% parent remaining)", "setting": "Metabolic Stability", "value": 44, "unit": "% parent remaining"}, {"measurement": "GSH Level (% Control)", "setting": "GSH Level", "value": "<10", "unit": "% Control"}, {"measurement": "RedOx State", "setting": "RedOx State", "value": 28, "unit": "% inhibition"}, {"measurement": "DNA Synthesis", "setting": "DNA Synthesis", "value": "<10", "unit": "% inhibition"}, {"measurement": "Cell Viability", "setting": "Cell Viability", "value": "<10", "unit": "% inhibition"}, {"measurement": "Protein Synthesis", "setting": "Protein Synthesis", "value": 65, "unit": "% inhibition"}, {"measurement": "Membrane Integrity", "setting": "Membrane Integrity", "value": "<10", "unit": "% inhibition"}, {"measurement": "Caspase-3 Induction % Induction", "setting": "Caspase-3", "value": "<10", "unit": "% Induction"}, {"measurement": "CYP1A2", "setting": "CYP1A2", "value": "<10", "unit": "% inhibition"}, {"measurement": "CYP2C9", "setting": "CYP2C9", "value": "<10", "unit": "% inhibition"}, {"measurement": "CYP2D6", "setting": "CYP2D6", "value": 44, "unit": "% inhibition"}, {"measurement": "CYP3A4", "setting": "CYP3A4", "value": 22, "unit": "% inhibition"}, {"measurement": "CYP2C19", "setting": "CYP2C19", "value": 28, "unit": "% inhibition"}]}]}
